Where two headings read alike, the source gives them in different places.
Key:
A431 = assay: Cell anti-proliferation experiment (CTG); assay type: cell-based; details: Homo sapiens, A431 (wild-type EGFR), class symbol
Excerpt: (§1) H1975 has an EGFR: T790M/L858R double mutation, PC-9 has an EGFR exon 19 deletion, and HCC827 has an exon 19 deletion mutation. Baf3-19del- T790M -C797S (Baf3-DTC) is a stable Ba/F3 clone expressing exogenous EGFR gene bearing T790M, C797S, and […] triple amino acid mutations, purchased from KYinno. Baf3-L858R-T790M - C797S (Baf3-LTC) is a stable Ba/F3 clone expressing exogenous EGFR gene bearing […], T790M, and C797S triple mutations, purchased from KYinno. A549 is a wild-type EGFR, purchased from Nanjing Kebai Biotechnology. A431 is a wild-type EGFR, purchased from Shanghai Xinyu Biotechnology. CellCounting-Lite2.0, Trypsin EDTA, 37°C CO2 incubator, cell counter, EnVision Serial No. 1050454.
(§2) • A) Digested logarithmic phase cells with Trypsin EDTA, added culture medium to stop the reaction, and mixing well with a pipette to prepare a cell suspension. • B) Used Vi-cell to determine cell concentration, and prepared a suspension of 15,000-25,000 cells per milliliter according to the experimental purpose and cell characteristics. • C) After prepared the cell suspension, mixed it gently and added 100 µL to each well, so that the cell density to be tested is 1500-2500 per well.
(§3) • A) Weighed approximately 2 mg the compound and calculated the required volume of DMSO according to the formula: Compound mass (mg) * Compound purity (%) / Compound molecular weight * 1000. • B) Placed the inoculated cell culture plate into an incubator and incubated for about 24 hours. Then added compounds of varying concentrations. • C) Diluted the 10mM compound stock solution to […] with culture medium, and added the […] compound solution to the second column of the deep well plate in sequence, and added […] culture medium containing 0.5% DMSO to the third to eleventh columns. • D) Gradient dilution: Taked 125 µL solution from the second column and added it to the third column, mix well; then taked 125 µL solution from the third column and added it to the fourth column, repeated this operation until the tenth column. • E) Used a multichannel pipette, aspirated 25 µL the compound from the deep-well plate and added it to a 96-well culture plate. Repeated this process three times for each compound on the 96-well plate. This will ultimately create a concentration gradient of up to 10,000 nM at a 1:4 ratio on the 96-well plate.
(§4) • A) The effects of the compound were observed under an inverted microscope after the 96-well plate was incubated in an incubator for 72 hours. • B) Added 25 µL CTG solution to each well, placed on a shaker for 10 minutes, and read the […] of each well.
(§5) Calculate the % Cell Viability using the following formula: %Cell Viability = 100% × (Lum_Sample−Lum_LC)/(Lum_HC−Lum_LC) [formula] • Lum_HC: Cell readings from the 0.1% DMSO control group • Lum_Sample: Cell readings with added compound • Lum_LC: Blank culture medium reading
(§6) The IC50 value was obtained by curve fitting using GraphPad Prism 8 software.

A549 = assay: Cell anti-proliferation experiment (CTG); assay type: cell-based; details: Homo sapiens, A549 (wild-type EGFR), class symbol
Excerpt: as §1, §2, §3, §4, §5, §6

[1] = tested on: Baf3-19del- T790M -C797S (Baf3-DTC); assay: Cell anti-proliferation experiment (CTG); assay type: cell-based; details: class symbol
Excerpt: as §1, §2, §3, §4, §5, §6

[2] = tested on: Baf3-L858R-T790M - C797S (Baf3-LTC); assay: Cell anti-proliferation experiment (CTG); assay type: cell-based; details: class symbol
Excerpt: as §1, §2, §3, §4, §5, §6

H1975 = assay: Cell anti-proliferation experiment (CTG); assay type: cell-based; details: Homo sapiens, H1975 (EGFR T790M/L858R), class symbol
Excerpt: as §1, §2, §3, §4, §5, §6

HCC827 = assay: Cell anti-proliferation experiment (CTG); assay type: cell-based; details: Homo sapiens, HCC827 (exon 19 deletion), class symbol
Excerpt: as §1, §2, §3, §4, §5, §6

PC-9 = assay: Cell anti-proliferation experiment (CTG); assay type: cell-based; details: Homo sapiens, PC-9 (EGFR exon 19 deletion), class symbol
Excerpt: as §1, §2, §3, §4, §5, §6

[3] = target: EGFR in Baf3-19del-T790M-C797S (Homo sapiens, UniProt P00533, C797S/DEL746-750/T790M); assay: EGFR PROTAC HTRF experiment (total EGFR degradation); assay type: cell-based
Protocol: (§7) [table] Among them, B[…] -C797S (abbreviated as Baf3-DTC) is a stable Ba/F3 clone expressing exogenous EGFR gene bearing T790M, C797S and […] triple amino acid mutations, purchased from KYinno; Baf3-L858R-T790M - C797S (abbreviated as Baf3-LTC) is a stable Ba/F3 clone expressing exogenous EGFR gene bearing […], T790M, C797S triple mutations, purchased from KYinno. [table] [table] Dilutded Eu and d2 antibodies 2μl per well with detection buffer 20-fold. Then mixed the two antibody vials thoroughly. [table] Opened EnVision , locate the HTRF program, configured the board, and then read […]. The fitted curve, DC50 and Dmax of this compound could be generated using GraphPad Prism .

[4] = target: EGFR in Baf3-L858R-T790M-C797S (Homo sapiens, UniProt P00533, C797S/L858R/T790M); assay: as above; assay type: cell-based
Protocol: as §7

[5] = Pharmacokinetic tests in male SD rats; assay type: in vivo; details: oral gavage (po), 10 mg/kg, plasma
Protocol: Three healthy adult male SD rats, 6-8 weeks old, weighing 200-300 grams.
EDTA-Na2 anticoagulant, weighed 11.2 g EDTA-Na2 and placed it in a reagent bottle. Added 100 mL physiological saline and shaked to dissolve completely. After preparation, dispensed into 1.5 mL centrifuge tubes, each containing approximately 20 µL, for whole blood sample collection.
Accurately weighed approximately 10 mg the sample to be tested, added 10% of the converted total volume of DMSO to dissolve it, and then slowly added 90% of the total volume of 0.5% MC solvent while stirring. Sonicated and vortex to mix thoroughly to obtain a solution of the preparation that is considered to be homogeneous, with a concentration of 1 mg/mL. Prepared fresh immediately before use.
Piped 0.2 mL the sample into a 1.5 mL centrifuge tube and store at -80°C for analysis of the concentration of the drug solution.
Animals were housed in rat cages and fasted for at least 10 hours starting the day before the experiment, but water was allowed. On the day of the experiment, each animal was weighed and marked on its tail. Blank blood samples were collected before drug administration. Blood was collected via tail vein.
• Route of administration: Oral gavage (po); • Dosage concentration: 1 mg/ml; • Dosage: 10 mg/kg; • Dosage volume: 10 mL/kg; • Procedure: Hold the rat upright with your left hand wearing a bite-proof glove, insert the gavage needle into the throat through the mouth, and insert the needle when feeling no obvious resistance. Then inject the drug into the stomach.
Whole blood (0.1-0.2 ml) was collected from test animals at 0.5 h, 1 h, 2 h, 4 h, 6 h, 8 h, 12 h, and 24 h after drug administration. The samples were placed in EDTA-Na 2 anticoagulant tubes, inverted 3-4 times to mix, and centrifuged at 4°C, 2000 g for 5 min to separate the supernatant plasma. The plasma was promptly transferred to -80°C for storage until analysis. Blood was collected via tail vein.
A quantitative detection method for the analyte was established using Shimadzu liquid chromatography and Triple Quad™ 6500+AB mass spectrometry. The concentration of the parent drug in plasma was analyzed. The analytical results were controlled for variation using quality control samples, with the accuracy of the quality control samples expected to be between 80% and 120%.
The main pharmacokinetic parameters were calculated using a non-compartmental model in Winnonlin Phoenix software. These parameters included the area under the curve (AUC(0-t) and AUC(0-∞)), elimination half-life (T1/2), maximum plasma concentration (Cmax ), and time to reach maximum plasma concentration (Tmax).The results are shown in Table 3.

[6] = Baf3-DTC, incubated 16 hours, HTRF total EGFR; read-out: Baf3-DTC DC50
[7] = Baf3-DTC, incubated 16 hours, HTRF total EGFR; read-out: Baf3-DTC Dmax
[8] = Baf3-LTC, incubated 16 hours, HTRF total EGFR; read-out: Baf3-LTC DC50
[9] = Baf3-LTC, incubated 16 hours, HTRF total EGFR; read-out: Baf3-LTC Dmax

Sequence of EGFR in Baf3-L858R-T790M-C797S (P00533 25-1210 T790M/C797S/L858R): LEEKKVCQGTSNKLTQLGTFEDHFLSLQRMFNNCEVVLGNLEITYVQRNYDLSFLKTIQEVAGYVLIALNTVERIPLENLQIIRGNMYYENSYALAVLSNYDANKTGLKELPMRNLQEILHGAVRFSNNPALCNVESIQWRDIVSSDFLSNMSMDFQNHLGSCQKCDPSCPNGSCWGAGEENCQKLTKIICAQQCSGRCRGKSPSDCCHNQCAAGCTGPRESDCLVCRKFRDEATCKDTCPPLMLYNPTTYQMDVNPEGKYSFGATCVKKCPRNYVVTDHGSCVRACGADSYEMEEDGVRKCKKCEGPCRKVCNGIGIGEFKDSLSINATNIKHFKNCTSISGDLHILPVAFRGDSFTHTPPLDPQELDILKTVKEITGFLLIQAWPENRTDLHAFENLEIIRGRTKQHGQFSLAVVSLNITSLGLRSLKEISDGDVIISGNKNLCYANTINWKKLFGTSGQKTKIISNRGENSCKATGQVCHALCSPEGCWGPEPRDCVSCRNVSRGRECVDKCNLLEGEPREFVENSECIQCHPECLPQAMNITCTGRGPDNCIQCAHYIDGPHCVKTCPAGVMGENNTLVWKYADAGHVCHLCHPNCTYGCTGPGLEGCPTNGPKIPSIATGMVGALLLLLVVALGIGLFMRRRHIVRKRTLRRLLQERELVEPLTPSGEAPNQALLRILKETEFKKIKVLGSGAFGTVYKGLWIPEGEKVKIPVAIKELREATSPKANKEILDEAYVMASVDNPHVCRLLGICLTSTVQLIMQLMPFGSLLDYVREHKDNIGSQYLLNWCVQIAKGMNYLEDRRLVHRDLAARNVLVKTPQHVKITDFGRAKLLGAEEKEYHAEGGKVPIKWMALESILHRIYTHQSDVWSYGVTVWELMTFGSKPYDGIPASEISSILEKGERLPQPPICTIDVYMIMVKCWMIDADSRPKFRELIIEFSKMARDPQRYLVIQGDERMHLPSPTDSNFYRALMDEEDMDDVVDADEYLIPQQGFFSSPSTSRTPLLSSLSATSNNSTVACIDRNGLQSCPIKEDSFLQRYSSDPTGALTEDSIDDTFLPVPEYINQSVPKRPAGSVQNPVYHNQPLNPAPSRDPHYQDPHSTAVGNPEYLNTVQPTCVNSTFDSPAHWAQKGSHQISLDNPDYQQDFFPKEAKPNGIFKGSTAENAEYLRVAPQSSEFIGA
Sequence of EGFR in Baf3-19del-T790M-C797S (P00533 with tags, fused parts or gaps DEL746-750/T790M/C797S): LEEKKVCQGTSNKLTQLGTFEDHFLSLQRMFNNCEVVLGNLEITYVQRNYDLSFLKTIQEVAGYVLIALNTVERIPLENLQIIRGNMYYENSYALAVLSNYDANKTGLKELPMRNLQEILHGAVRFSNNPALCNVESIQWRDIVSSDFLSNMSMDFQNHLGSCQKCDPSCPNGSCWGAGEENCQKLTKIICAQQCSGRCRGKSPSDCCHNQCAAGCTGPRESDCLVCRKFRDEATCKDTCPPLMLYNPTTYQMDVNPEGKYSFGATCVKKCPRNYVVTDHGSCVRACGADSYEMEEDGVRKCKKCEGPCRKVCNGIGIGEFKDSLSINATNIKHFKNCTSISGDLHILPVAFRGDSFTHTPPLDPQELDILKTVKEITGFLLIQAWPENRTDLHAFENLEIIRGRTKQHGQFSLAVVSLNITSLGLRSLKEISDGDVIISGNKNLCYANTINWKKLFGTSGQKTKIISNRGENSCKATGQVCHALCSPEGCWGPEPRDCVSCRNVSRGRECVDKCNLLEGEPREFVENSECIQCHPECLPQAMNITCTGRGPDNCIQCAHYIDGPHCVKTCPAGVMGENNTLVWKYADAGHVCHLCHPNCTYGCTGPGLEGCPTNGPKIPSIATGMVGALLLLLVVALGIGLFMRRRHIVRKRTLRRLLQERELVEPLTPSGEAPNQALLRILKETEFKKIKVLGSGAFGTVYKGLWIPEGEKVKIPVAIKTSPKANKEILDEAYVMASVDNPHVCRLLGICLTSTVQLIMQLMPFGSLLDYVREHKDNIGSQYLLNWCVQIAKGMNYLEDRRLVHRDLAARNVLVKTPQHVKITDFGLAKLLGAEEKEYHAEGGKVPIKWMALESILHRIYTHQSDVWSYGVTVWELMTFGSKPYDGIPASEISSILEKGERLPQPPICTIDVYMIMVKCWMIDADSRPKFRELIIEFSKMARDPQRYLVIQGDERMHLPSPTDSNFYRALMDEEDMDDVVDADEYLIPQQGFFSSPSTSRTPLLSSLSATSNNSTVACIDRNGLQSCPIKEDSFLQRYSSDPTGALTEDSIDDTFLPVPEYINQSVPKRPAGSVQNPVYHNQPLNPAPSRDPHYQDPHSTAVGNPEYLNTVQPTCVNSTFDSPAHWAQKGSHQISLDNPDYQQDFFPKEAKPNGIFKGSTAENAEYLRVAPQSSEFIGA

SMILES: CCc1cc(Nc2ncc(Cl)c(Nc3ccc4nccnc4c3P(C)(C)=O)n2)c(OC)cc1N1CCN(C(=O)CN2CCC(c3cc4c(cc3F)c(N3CCC(=O)NC3=O)nn4C)C(F)(F)C2)CC1 (stereo not shown) [TA-007]
- IC50 (A431; A-431, 72 hours): 10 to 100 nM
- IC50 (A549; 72 hours): 10 to 100 nM
- IC50 ([1]; 72 hours): 10 to 100 nM
- IC50 ([2]; 72 hours): < 10 nM
- IC50 (H1975; NCI-H1975, 72 hours): 100 to 1000 nM
- IC50 (HCC827; 72 hours): 10 to 100 nM
- IC50 (PC-9; 72 hours): 100 to 1000 nM
- DC50 ([3]; read-out: Baf3-DTC DC50; Baf3-DTC, incubated 16 hours, HTRF total EGFR): < 10 nM
- Dmax ([3]; read-out: Baf3-DTC Dmax): 70 to 100%
- DC50 ([4]; read-out: Baf3-LTC DC50; Baf3-LTC, incubated 16 hours, HTRF total EGFR): < 10 nM
- Dmax ([4]; read-out: Baf3-LTC Dmax): 70 to 100%

SMILES: CCc1cc(Nc2ncc(Cl)c(Nc3ccc(Cl)cc3C(C)(C)O)n2)c(OC)cc1N1CCN(C(=O)CN2CCC(c3cc4c(cc3F)c(N3CCC(=O)NC3=O)nn4C)C(F)(F)C2)CC1 (stereo not shown) [TA-009]
- DC50 [3, 6]: 100 to 1000 nM
- Dmax [3, 7]: 70 to 100%
- DC50 [4, 8]: 100 to 1000 nM
- Dmax [4, 9]: 70 to 100%

SMILES: CCc1cc(Nc2ncc(Cl)c(Nc3ccccc3N(C)S(C)(=O)=O)n2)c(OC)cc1N1CCN(C(=O)CN2CCC(c3cc4c(cc3F)c(N3CCC(=O)NC3=O)nn4C)C(F)(F)C2)CC1 (stereo not shown) [TA-013]
- IC50 (A431; A-431, 72 h): > 1000 nM
- IC50 (A549; A549, 72 h): > 1000 nM
- IC50 ([1]; 72 h): < 10 nM
- IC50 ([2]; 72 h): 10 to 100 nM
- IC50 (H1975; NCI-H1975, 72 h): 10 to 100 nM
- IC50 (HCC827; HCC827, 72 h): > 1000 nM
- IC50 (PC-9; PC-9, 72 h): > 1000 nM
- DC50 [3, 6]: < 10 nM
- Dmax [3, 7]: 70 to 100%
- DC50 [4, 8]: < 10 nM
- Dmax [4, 9]: 70 to 100%

SMILES: CCc1cc(Nc2ncc(Cl)c(Nc3ccc(OC)cc3C(C)=O)n2)c(OC)cc1N1CCN(C(=O)CN2CCC(c3cc4c(cc3F)c(N3CCC(=O)NC3=O)nn4C)C(F)(F)C2)CC1 (stereo not shown) [TA-017]
- DC50 [3, 6]: 100 to 1000 nM
- Dmax [3, 7]: 70 to 100%
- DC50 [4, 8]: 100 to 1000 nM
- Dmax [4, 9]: 70 to 100%

SMILES: CCc1cc(Nc2ncc(Cl)c(Nc3ccccc3P(C)(C)=O)n2)c(OC)cc1N1CCN(C(=O)CN2CCC(c3cc4c(cc3F)c(N3CCC(=O)NC3=O)nn4C)C(F)(F)C2)[C@@H](C)C1 (stereo partly shown) [TA-025]
- DC50 [3, 6]: 10 to 100 nM
- Dmax [3, 7]: 70 to 100%
- DC50 [4, 8]: 10 to 100 nM
- Dmax [4, 9]: 70 to 100%

SMILES: CCc1ccc(Nc2nc(Nc3cc(CC)c(N4CCN(C(=O)CN5CCC(c6cc7c(cc6F)c(N6CCC(=O)NC6=O)nn7C)C(F)(F)C5)CC4)cc3OC)ncc2Cl)c(P(C)(C)=O)c1 (stereo not shown) [TA-035]
- DC50 [3, 6]: 10 to 100 nM
- Dmax ([3]; read-out: Baf3-DTC Dmax): 70 to 100%
- DC50 [4, 8]: 10 to 100 nM
- Dmax ([4]; read-out: Baf3-LTC Dmax): 70 to 100%

SMILES: CCc1cc(Nc2ncc(Cl)c(Nc3ccccc3P3(=O)CCCC3)n2)c(OC)cc1N1CCN(C(=O)CN2CCC(c3cc4c(cc3F)c(N3CCC(=O)NC3=O)nn4C)C(F)(F)C2)CC1 (stereo not shown) [TA-045]
- DC50 [3, 6]: 10 to 100 nM
- Dmax ([3]; read-out: Baf3-DTC Dmax): 70 to 100%
- DC50 [4, 8]: 10 to 100 nM
- Dmax ([4]; read-out: Baf3-LTC Dmax): 70 to 100%

SMILES: CCc1cc(Nc2ncc(Br)c(Nc3ccccc3P(C)(C)=O)n2)c(OC)cc1N1CCN(C(=O)Cn2nc(C)c(-c3cc4c(cc3F)c(N3CCC(=O)NC3=O)nn4C)c2C)CC1 [TC-144]
- IC50 (A431; A-431, 72 h): > 1000 nM
- IC50 (A549; A549, 72 h): 100 to 1000 nM
- IC50 ([1]; 72 h): < 10 nM
- IC50 ([2]; 72 h): < 10 nM
- IC50 (H1975; NCI-H1975, 72 h): 10 to 100 nM
- IC50 (HCC827; HCC827, 72 h): 100 to 1000 nM
- IC50 (PC-9; PC-9, 72 h): 100 to 1000 nM
- HL [5]: 3.21 h
- AUC(0-inf) ([5]; rat, in vivo): 4140 ng·h/mL
- AUC(0-t) ([5]; rat, in vivo): 4120 ng·h/mL
- Cmax ([5]; rat, in vivo): 700 ng/mL
- MRT last ([5]; rat, in vivo): 4.23 h
- Tmax ([5]; rat, in vivo): 0.67 h

Source: patent EP4813979A1, “COMPOUND FOR EGFR PROTEIN DEGRADATION AND USE THEREOF” (TYK Medicines, Inc., priority 2023, dated 2025)
